Values belong to the molecule of their own block, whether it stands above or below them.
Experiment: Hygroscopicity by Dynamic Vapor Sorption (DVS), sorption/desorption profile
Type: physicochemical
Details: for weight gain from 0 to 95% RH / Change In Mass (%) - ref, Desorption / Change In Mass (%) - ref, Sorption / Change In Mass (%) - ref, Hysteresis: DVS 25° C.; for hygroscopicity classification: based on DVS weight gain from 0 to 95% RH
Experimental: The preparation of lactose co-crystal and asparagine co-crystal were scaled up and repeated (about 400 mg of dapagliflozin free form was dissolved in 26 ml of IPA) and XRPD, PLM, TGA, DSC, NMR and DVS analyses were conducted for physicochemical properties evaluation. Before physicochemical properties evaluation, the solids precipitated out were isolated and dried off at 40° C. for 4 hours in vacuum drier. After hygroscopicity test, the sample was retested by XRPD to determine if any form transformation during the DVS test.
The sorption/desorption profiles of dapagliflozin Form I were tested at 25° C. under 0-95% relative humidity. […] This sample was tested by XRPD.

weight gain from 0 to 95% RH: 1.80%
Change In Mass (%) - ref, Desorption (cycle 1, target 0.0 % P/Po): 0.159%
Change In Mass (%) - ref, Sorption (cycle 1, target 0.0 % P/Po): 0.002%
Change In Mass (%) - ref, Desorption (cycle 1, target 5.0 % P/Po): 0.302%
Change In Mass (%) - ref, Hysteresis (cycle 1, target 5.0 % P/Po): 0.071%
Change In Mass (%) - ref, Sorption (cycle 1, target 5.0 % P/Po): 0.231%
Change In Mass (%) - ref, Desorption (cycle 1, target 10.0 % P/Po): 0.341%
Change In Mass (%) - ref, Hysteresis (cycle 1, target 10.0 % P/Po): 0.071%
Change In Mass (%) - ref, Sorption (cycle 1, target 10.0 % P/Po): 0.270%
Change In Mass (%) - ref, Desorption (cycle 1, target 15.0 % P/Po): 0.364%
Change In Mass (%) - ref, Hysteresis (cycle 1, target 15.0 % P/Po): 0.060%
Change In Mass (%) - ref, Sorption (cycle 1, target 15.0 % P/Po): 0.304%
Change In Mass (%) - ref, Desorption (cycle 1, target 20.0 % P/Po): 0.371%
Change In Mass (%) - ref, Hysteresis (cycle 1, target 20.0 % P/Po): 0.035%
Change In Mass (%) - ref, Sorption (cycle 1, target 20.0 % P/Po): 0.336%
Change In Mass (%) - ref, Desorption (cycle 1, target 25.0 % P/Po): 0.392%
Change In Mass (%) - ref, Hysteresis (cycle 1, target 25.0 % P/Po): 0.022%
Change In Mass (%) - ref, Sorption (cycle 1, target 25.0 % P/Po): 0.370%
Change In Mass (%) - ref, Desorption (cycle 1, target 30.0 % P/Po): 0.412%
Change In Mass (%) - ref, Hysteresis (cycle 1, target 30.0 % P/Po): 0.009%
Change In Mass (%) - ref, Sorption (cycle 1, target 30.0 % P/Po): 0.404%
Change In Mass (%) - ref, Desorption (cycle 1, target 35.0 % P/Po): 0.440%
Change In Mass (%) - ref, Hysteresis (cycle 1, target 35.0 % P/Po): −0.006%
Change In Mass (%) - ref, Sorption (cycle 1, target 35.0 % P/Po): 0.446%
Change In Mass (%) - ref, Desorption (cycle 1, target 40.0 % P/Po): 0.474%
Change In Mass (%) - ref, Hysteresis (cycle 1, target 40.0 % P/Po): −0.020%
Change In Mass (%) - ref, Sorption (cycle 1, target 40.0 % P/Po): 0.493%
Change In Mass (%) - ref, Desorption (cycle 1, target 45.0 % P/Po): 0.517%
Change In Mass (%) - ref, Hysteresis (cycle 1, target 45.0 % P/Po): −0.026%
Change In Mass (%) - ref, Sorption (cycle 1, target 45.0 % P/Po): 0.542%
Change In Mass (%) - ref, Desorption (cycle 1, target 50.0 % P/Po): 0.565%
Change In Mass (%) - ref, Hysteresis (cycle 1, target 50.0 % P/Po): −0.042%
Change In Mass (%) - ref, Sorption (cycle 1, target 50.0 % P/Po): 0.607%
Change In Mass (%) - ref, Desorption (cycle 1, target 55.0 % P/Po): 0.600%
Change In Mass (%) - ref, Hysteresis (cycle 1, target 55.0 % P/Po): −0.073%
Change In Mass (%) - ref, Sorption (cycle 1, target 55.0 % P/Po): 0.673%
Change In Mass (%) - ref, Desorption (cycle 1, target 60.0 % P/Po): 0.650%
Change In Mass (%) - ref, Hysteresis (cycle 1, target 60.0 % P/Po): −0.086%
Change In Mass (%) - ref, Sorption (cycle 1, target 60.0 % P/Po): 0.736%
Change In Mass (%) - ref, Desorption (cycle 1, target 65.0 % P/Po): 0.729%
Change In Mass (%) - ref, Hysteresis (cycle 1, target 65.0 % P/Po): −0.057%
Change In Mass (%) - ref, Sorption (cycle 1, target 65.0 % P/Po): 0.786%
Change In Mass (%) - ref, Desorption (cycle 1, target 70.0 % P/Po): 0.794%
Change In Mass (%) - ref, Hysteresis (cycle 1, target 70.0 % P/Po): −0.075%
Change In Mass (%) - ref, Sorption (cycle 1, target 70.0 % P/Po): 0.869%
Change In Mass (%) - ref, Desorption (cycle 1, target 75.0 % P/Po): 0.878%
Change In Mass (%) - ref, Hysteresis (cycle 1, target 75.0 % P/Po): −0.078%
Change In Mass (%) - ref, Sorption (cycle 1, target 75.0 % P/Po): 0.956%
Change In Mass (%) - ref, Desorption (cycle 1, target 80.0 % P/Po): 1.031%
Change In Mass (%) - ref, Hysteresis (cycle 1, target 80.0 % P/Po): −0.041%
Change In Mass (%) - ref, Sorption (cycle 1, target 80.0 % P/Po): 1.072%
Change In Mass (%) - ref, Desorption (cycle 1, target 85.0 % P/Po): 1.171%
Change In Mass (%) - ref, Hysteresis (cycle 1, target 85.0 % P/Po): −0.030%
Change In Mass (%) - ref, Sorption (cycle 1, target 85.0 % P/Po): 1.201%
Change In Mass (%) - ref, Desorption (cycle 1, target 90.0 % P/Po): 1.378%
Change In Mass (%) - ref, Hysteresis (cycle 1, target 90.0 % P/Po): −0.019%
Change In Mass (%) - ref, Sorption (cycle 1, target 90.0 % P/Po): 1.397%
Change In Mass (%) - ref, Desorption (cycle 1, target 95.0 % P/Po): 1.798%
Change In Mass (%) - ref, Sorption (cycle 1, target 95.0 % P/Po): 1.798%
hygroscopicity classification: slightly hygroscopic
SMILES: CCOc1ccc(Cc2cc(C3OC(CO)C(O)C(O)C3O)ccc2Cl)cc1.NC(=O)CC(N)C(=O)O (stereo not drawn) [Asparagine co-crystal]

weight gain from 0 to 95% RH: 2.16%
Change In Mass (%) - ref, Desorption (cycle 1, target 0.0 % P/Po): 0.077%
Change In Mass (%) - ref, Sorption (cycle 1, target 0.0 % P/Po): 0.000%
Change In Mass (%) - ref, Desorption (cycle 1, target 5.0 % P/Po): 0.104%
Change In Mass (%) - ref, Hysteresis (cycle 1, target 5.0 % P/Po): 0.083%
Change In Mass (%) - ref, Sorption (cycle 1, target 5.0 % P/Po): 0.021%
Change In Mass (%) - ref, Desorption (cycle 1, target 10.0 % P/Po): 0.120%
Change In Mass (%) - ref, Hysteresis (cycle 1, target 10.0 % P/Po): 0.078%
Change In Mass (%) - ref, Sorption (cycle 1, target 10.0 % P/Po): 0.042%
Change In Mass (%) - ref, Desorption (cycle 1, target 15.0 % P/Po): 0.136%
Change In Mass (%) - ref, Hysteresis (cycle 1, target 15.0 % P/Po): 0.073%
Change In Mass (%) - ref, Sorption (cycle 1, target 15.0 % P/Po): 0.064%
Change In Mass (%) - ref, Desorption (cycle 1, target 20.0 % P/Po): 0.151%
Change In Mass (%) - ref, Hysteresis (cycle 1, target 20.0 % P/Po): 0.066%
Change In Mass (%) - ref, Sorption (cycle 1, target 20.0 % P/Po): 0.085%
Change In Mass (%) - ref, Desorption (cycle 1, target 25.0 % P/Po): 0.170%
Change In Mass (%) - ref, Hysteresis (cycle 1, target 25.0 % P/Po): 0.063%
Change In Mass (%) - ref, Sorption (cycle 1, target 25.0 % P/Po): 0.107%
Change In Mass (%) - ref, Desorption (cycle 1, target 30.0 % P/Po): 0.188%
Change In Mass (%) - ref, Hysteresis (cycle 1, target 30.0 % P/Po): 0.058%
Change In Mass (%) - ref, Sorption (cycle 1, target 30.0 % P/Po): 0.131%
Change In Mass (%) - ref, Desorption (cycle 1, target 35.0 % P/Po): 0.213%
Change In Mass (%) - ref, Hysteresis (cycle 1, target 35.0 % P/Po): 0.053%
Change In Mass (%) - ref, Sorption (cycle 1, target 35.0 % P/Po): 0.160%
Change In Mass (%) - ref, Desorption (cycle 1, target 40.0 % P/Po): 0.238%
Change In Mass (%) - ref, Hysteresis (cycle 1, target 40.0 % P/Po): 0.036%
Change In Mass (%) - ref, Sorption (cycle 1, target 40.0 % P/Po): 0.201%
Change In Mass (%) - ref, Desorption (cycle 1, target 45.0 % P/Po): 0.266%
Change In Mass (%) - ref, Hysteresis (cycle 1, target 45.0 % P/Po): 0.022%
Change In Mass (%) - ref, Sorption (cycle 1, target 45.0 % P/Po): 0.244%
Change In Mass (%) - ref, Desorption (cycle 1, target 50.0 % P/Po): 0.296%
Change In Mass (%) - ref, Hysteresis (cycle 1, target 50.0 % P/Po): 0.013%
Change In Mass (%) - ref, Sorption (cycle 1, target 50.0 % P/Po): 0.283%
Change In Mass (%) - ref, Desorption (cycle 1, target 55.0 % P/Po): 0.330%
Change In Mass (%) - ref, Hysteresis (cycle 1, target 55.0 % P/Po): 0.007%
Change In Mass (%) - ref, Sorption (cycle 1, target 55.0 % P/Po): 0.323%
Change In Mass (%) - ref, Desorption (cycle 1, target 60.0 % P/Po): 0.366%
Change In Mass (%) - ref, Hysteresis (cycle 1, target 60.0 % P/Po): 0.003%
Change In Mass (%) - ref, Sorption (cycle 1, target 60.0 % P/Po): 0.363%
Change In Mass (%) - ref, Desorption (cycle 1, target 65.0 % P/Po): 0.410%
Change In Mass (%) - ref, Hysteresis (cycle 1, target 65.0 % P/Po): 0.000%
Change In Mass (%) - ref, Sorption (cycle 1, target 65.0 % P/Po): 0.409%
Change In Mass (%) - ref, Desorption (cycle 1, target 70.0 % P/Po): 0.465%
Change In Mass (%) - ref, Hysteresis (cycle 1, target 70.0 % P/Po): 0.000%
Change In Mass (%) - ref, Sorption (cycle 1, target 70.0 % P/Po): 0.466%
Change In Mass (%) - ref, Desorption (cycle 1, target 75.0 % P/Po): 0.531%
Change In Mass (%) - ref, Hysteresis (cycle 1, target 75.0 % P/Po): −0.004%
Change In Mass (%) - ref, Sorption (cycle 1, target 75.0 % P/Po): 0.534%
Change In Mass (%) - ref, Desorption (cycle 1, target 80.0 % P/Po): 0.618%
Change In Mass (%) - ref, Hysteresis (cycle 1, target 80.0 % P/Po): −0.004%
Change In Mass (%) - ref, Sorption (cycle 1, target 80.0 % P/Po): 0.622%
Change In Mass (%) - ref, Desorption (cycle 1, target 85.0 % P/Po): 0.768%
Change In Mass (%) - ref, Hysteresis (cycle 1, target 85.0 % P/Po): 0.005%
Change In Mass (%) - ref, Sorption (cycle 1, target 85.0 % P/Po): 0.762%
Change In Mass (%) - ref, Desorption (cycle 1, target 90.0 % P/Po): 1.081%
Change In Mass (%) - ref, Hysteresis (cycle 1, target 90.0 % P/Po): 0.069%
Change In Mass (%) - ref, Sorption (cycle 1, target 90.0 % P/Po): 1.012%
Change In Mass (%) - ref, Desorption (cycle 1, target 95.0 % P/Po): 2.162%
Change In Mass (%) - ref, Sorption (cycle 1, target 95.0 % P/Po): 2.162%
hygroscopicity classification: hygroscopic
SMILES: CCOc1ccc(Cc2cc(C3OC(CO)C(O)C(O)C3O)ccc2Cl)cc1.OCC1OC(OC2C(CO)OC(O)C(O)C2O)C(O)C(O)C1O (stereo not drawn) [lactose co-crystal]

From US9006188B2, “Co-crystals of dapagliflozin” (Mapi Pharma Ltd., priority 2013, dated 2015)
